The source of these data is patent publication US20240317754A1 (priority 2020, published 2024).

The test system of one assay is SARS-CoV replicon. In words: microbe, parasite or virus in culture. To be noted: Severe acute respiratory syndrome coronavirus, HEK-293T, 60 h. The assay is classed as cell-based.
The test system of another assay is SARS-CoV-2 replicon. Description: microbe, parasite or virus in culture. The assay is classed as cell-based. To be noted: HEK293T cells; for antiviral activity relative to GS-441524: in words; for IC50 / inhibition at 10 µM: Severe acute respiratory syndrome coronavirus 2, HEK-293T, 60 h.

A value given as a limit tells only on which side of the number the result lay.

As for `CC(C)C(=O)Nc1ncnn2c([C@]3(C#N)O[C@H](COC(=O)C(C)C)[C@@H](OC(=O)C(C)C)[C@H]3OC(=O)C(C)C)ccc12` [ATV001, (2R,3R,4R,5R)-2-cyano-2-(4-isobutyramidopyrrolo[2,1-f][1,2,4]triazin-7-PGP-yl)-5-((isobutyryloxy)methyl)tetrahydrofuran-3,4-diyl bis(2-methylpropanoate)], in the assay with SARS-CoV replicon, the inhibition at 10 µM turned out to be 66.8%. In the assay with SARS-CoV-2 replicon, the “antiviral activity relative to GS-441524” value is reported as “significantly lower than that of GS-441524” and the IC50 is > 50000 nM.

In turn, `CC(=O)Nc1ncnn2c([C@]3(C#N)O[C@H](COC(C)=O)[C@@H](OC(C)=O)[C@H]3OC(C)=O)ccc12` [ATV002, (2R,3R,4R,5R)-2-(4-acetamidopyrrolo[2,1-f][1,2,4]triazin-7-yl)-5-(acetoxymethyl)-2-cyanotetrahydrofuran-3,4-diyl diacetate] displayed an inhibition at 10 µM with SARS-CoV replicon of 61%. In the assay with SARS-CoV-2 replicon, the “antiviral activity relative to GS-441524” value was “significantly lower than that of GS-441524” and the IC50 is > 50000 nM.

In the assay on SARS-CoV replicon, `CC(=O)OC[C@H]1O[C@@](C#N)(c2ccc3c(N)ncnn23)[C@H](OC(C)=O)[C@@H]1OC(C)=O` [ATV003, (2R,3R,4R,5R)-5-(acetoxymethyl)-2-(4-aminopyrrolo[2,1-f][1,2,4]triazin-7-yl)-2-cyanotetrahydrofuran-3,4-diyl diacetate] showed an IC50 of 910 nM and an inhibition at 10 µM of 98.8%. In the assay with SARS-CoV-2 replicon, at 10 µM the inhibition was 97.6% and inhibition was half-maximal at 830 nM (IC50).

In the assay with SARS-CoV replicon, `CC(C)C(=O)OC[C@H]1O[C@@](C#N)(c2ccc3c(N)ncnn23)[C@H](OC(=O)C(C)C)[C@@H]1OC(=O)C(C)C` [ATV004, (2R,3R,4R,5R)-2-(4-aminopyrrolo[2,1-f][1,2,4]triazin-7-yl)-2-cyano-5-((isobutyryloxy)methyl)tetrahydrofuran-3,4-diyl bis(2-methylpropanoate)] displayed an inhibition at 5 µM of 91.8%. Also, in the assay on SARS-CoV-2 replicon, the “antiviral activity relative to GS-441524” value is recorded as “improved”, testing at 10 µM gave an inhibition of 97.5% and half-maximal inhibition (IC50) required 680 nM.

In the assay on SARS-CoV replicon, `CCCCCOC(=O)Nc1ncnn2c([C@]3(C#N)O[C@H](CO)[C@@H](O)[C@H]3O)ccc12` [ATV005, Pentyl (7-((2R,3R,4S,5R)-2-cyano-3,4-dihydroxy-5-(hydroxymethyl)tetrahydrofuran-2-yl)pyrrolo[2,1-f][1,2,4]triazin-4-yl)carbamate] registered an inhibition at 10 µM of 73.3%. Besides, in the assay on SARS-CoV-2 replicon, the IC50 is > 50000 nM.

The molecule `CC(=O)OC[C@H]1O[C@@](C#N)(c2ccc3c(N)ncnn23)[C@H](O)[C@@H]1O` [ATV007, ((2R,3S,4R,5R)-5-(4-aminopyrrolo[2,1-f][1,2,4]triazin-7-yl)-5-cyano-3,4-dihydroxytetrahydrofuran-2-yl)methyl acetate] registered an inhibition at 10 µM in the assay with SARS-CoV-2 replicon of 91.6%.

Consider `CCC(=O)OC[C@H]1O[C@@](C#N)(c2ccc3c(N)ncnn23)[C@H](O)[C@@H]1O` [ATV008, ((2R,3S,4R,5R)-5-(4-aminopyrrolo[2,1-f][1,2,4]triazin-7-yl)-5-cyano-3,4-dihydroxytetrahydrofuran-2-yl)methyl propionate], for which the inhibition at 10 µM in the assay on SARS-CoV-2 replicon came to 98.2%.

In the assay with SARS-CoV-2 replicon, `N#C[C@@]1(c2ccc3c(N)ncnn23)O[C@H](COC(=O)C2CC2)[C@@H](O)[C@H]1O` [ATV012, ((2R,3S,4R,5R)-5-(4-aminopyrrolo[2,1-f][1,2,4]triazin-7-yl)-5-cyano-3,4-dihydroxytetrahydrofuran-2-yl)methyl cyclopropanecarboxylate] registered an inhibition at 10 µM of 97.1%.

In the assay on SARS-CoV-2 replicon, `N#C[C@@]1(c2ccc3c(N)ncnn23)O[C@H](COC(=O)C2CCCC2)[C@@H](O)[C@H]1O` [ATV015, ((2R,3S,4R,5R)-5-(4-aminopyrrolo[2,1-f][1,2,4]triazin-7-yl)-5-cyano-3,4-dihydroxytetrahydrofuran-2-yl)methyl cyclopentanecarboxylate] returned an inhibition at 10 µM of 97.9% and an IC50 of 710 nM.

In the assay with SARS-CoV-2 replicon, `N#C[C@@]1(c2ccc3c(N)ncnn23)O[C@H](COC(=O)CC(F)(F)F)[C@@H](O)[C@H]1O` [ATV016, ((2R,3S,4R,5R)-5-(4-aminopyrrolo[2,1-f][1,2,4]triazin-7-yl)-5-cyano-3,4-dihydroxytetrahydrofuran-2-yl)methyl3,3,3-trifluoropropanoate] showed an inhibition at 10 µM of 97.2% and a half-maximal inhibitory concentration (IC50) of 830 nM.

On to `CC(C)[C@@H](N)C(=O)OC[C@H]1O[C@@](C#N)(c2ccc3c(N)ncnn23)[C@H](O)[C@@H]1O` [ATV019, ((2R,3S,4R,5R)-5-(4-aminopyrrolo[2,1-f][1,2,4]triazin-7-yl)-5-cyano-3,4-dihydroxytetrahydrofuran-2-yl)methyl D-valinate], for which the IC50 in the assay on SARS-CoV replicon was determined as 790 nM; in the assay on SARS-CoV-2 replicon, 970 nM. Further, the figures for the inhibition at 10 µM with SARS-CoV replicon and in the assay on SARS-CoV-2 replicon were 98.6% and 97.2%, respectively.

For the molecule `CC(C)[C@H](N)C(=O)OC[C@H]1O[C@@](C#N)(c2ccc3c(N)ncnn23)[C@H](O)[C@@H]1O` [ATV020, ((2R,3S,4R,5R)-5-(4-aminopyrrolo[2,1-f][1,2,4]triazin-7-yl)-5-cyano-3,4-dihydroxytetrahydrofuran-2-yl)methyl L-valinate], the IC50 is 1300 nM in the assay on SARS-CoV replicon and 2350 nM with SARS-CoV-2 replicon. For the same molecule, the inhibition at 10 µM with SARS-CoV replicon and in the assay with SARS-CoV-2 replicon was 99.2% throughout.

In the assay with SARS-CoV-2 replicon, `N#C[C@@]1(c2ccc3c(N)ncnn23)O[C@H](COC(=O)[C@@H](N)Cc2ccccc2)[C@@H](O)[C@H]1O` [ATV021, ((2R,3S,4R,5R)-5-(4-aminopyrrolo[2,1-f][1,2,4]triazin-7-yl)-5-cyano-3,4-dihydroxytetrahydrofuran-2-yl)methyl L-phenylalaninate] showed an inhibition at 10 µM of 0%.

In turn, `N#C[C@@]1(c2ccc3c(N)ncnn23)O[C@H](COC(=O)[C@H](N)Cc2ccccc2)[C@@H](O)[C@H]1O` [ATV022, ((2R,3S,4R,5R)-5-(4-aminopyrrolo[2,1-f][1,2,4]triazin-7-yl)-5-cyano-3,4-dihydroxytetrahydrofuran-2-yl)methyl D-phenylalaninate] displayed an inhibition at 10 µM with SARS-CoV-2 replicon of 0%.

`CCC(C)[C@H](N)C(=O)OC[C@H]1O[C@@](C#N)(c2ccc3c(N)ncnn23)[C@H](O)[C@@H]1O` (stereo partly drawn) [ATV023, ((2R,3S,4R,5R)-5-(4-aminopyrrolo[2,1-f][1,2,4]triazin-7-yl)-5-cyano-3,4-dihydroxytetrahydrofuran-2-yl)methyl (2S)-2-amino-3-methylpentanoate]: in the assay with SARS-CoV-2 replicon, the inhibition at 10 µM was 98.7% and half-maximal inhibition (IC50) required 950 nM.

In the assay on SARS-CoV-2 replicon, `CCC(C)[C@@H](N)C(=O)OC[C@H]1O[C@@](C#N)(c2ccc3c(N)ncnn23)[C@H](O)[C@@H]1O` (stereo partly drawn) [ATV024, ((2R,3S,4R,5R)-5-(4-aminopyrrolo[2,1-f][1,2,4]triazin-7-yl)-5-cyano-3,4-dihydroxytetrahydrofuran-2-yl)methyl (2R)-2-amino-3-methylpentanoate] had an inhibition at 10 µM of 99.1% and an IC50 of 860 nM.

Regarding `CC(C)C(=O)OC[C@H]1O[C@@](C#N)(c2cc(F)c3c(N)ncnn23)[C@H](O)[C@@H]1O` [ATV025, ((2R,3S,4R,5R)-5-(4-amino-5-fluoropyrrolo[2,1-f][1,2,4]triazin-7-yl)-5-cyano-3,4-dihydroxytetrahydrofuran-2-yl)methyl isobutyrate], in the assay with SARS-CoV-2 replicon, the inhibition at 10 µM was 97.8% and the IC50 is 890 nM.

For the molecule `CC1(C)O[C@H]2[C@@H](O1)[C@](C#N)(c1ccc3c(N)ncnn13)O[C@@H]2CO` [Intermediate 5 of RDV, reference compound], the inhibition at 10 µM with SARS-CoV replicon is 75.9%. In addition, the IC50 with SARS-CoV-2 replicon is > 50000 nM.

Usually inhibition stands for the drop in the measured response relative to a control, in per cent. Read a high inhibition as a response far below the control. Broadly, the IC50 is the concentration that inhibits the measured activity by half. A lower IC50 goes with greater potency.
